Measured values taken from PubChem BioAssay (NCI).
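Exposure lasted 48 hours, with cells grown in 96-well plates and compounds tested at five concentrations. TGI: total growth inhibition.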

Key:
Test in all cases: DTP human tumour cell line panel, 48 h
HOP-92 NSCLC = system: HOP-92 NSCLC
EKVX NSCLC = system: EKVX NSCLC
HCT-15 colon = system: HCT-15 colon
SF-539 CNS = system: SF-539 CNS
HS 578T breast = system: HS 578T breast
MOLT-4 leukemia = system: MOLT-4 leukemia
SNB-19 CNS = system: SNB-19 CNS
U251 CNS = system: U251 CNS
OVCAR-4 ovarian = system: OVCAR-4 ovarian
RXF 393 renal = system: RXF 393 renal
COLO 205 colon = system: COLO 205 colon
RPMI-8226 leukemia = system: RPMI-8226 leukemia
SN12C renal = system: SN12C renal
KM12 colon = system: KM12 colon
HCT-116 colon = system: HCT-116 colon
SR leukemia = system: SR leukemia
OVCAR-3 ovarian = system: OVCAR-3 ovarian
SF-268 CNS = system: SF-268 CNS
SNB-75 CNS = system: SNB-75 CNS
BT-549 breast = system: BT-549 breast
NCI-H460 lung = system: NCI-H460 lung
K-562 leukemia = system: K-562 leukemia
MDA-MB-435 = system: MDA-MB-435
CCRF-CEM leukemia = system: CCRF-CEM leukemia
A549 NSCLC = system: A549 NSCLC
UACC-62 melanoma = system: UACC-62 melanoma
HT29 colon = system: HT29 colon
MDA-MB-231 breast = system: MDA-MB-231 breast
MCF7 breast = system: MCF7 breast
M14 melanoma = system: M14 melanoma
OVCAR-8 ovarian = system: OVCAR-8 ovarian
NCI/ADR-RES ovarian = system: NCI/ADR-RES ovarian
DU-145 prostate = system: DU-145 prostate
NCI-H226 lung = system: NCI-H226 lung
NCI-H522 lung = system: NCI-H522 lung
TK-10 renal = system: TK-10 renal
NCI-H23 lung = system: NCI-H23 lung
SF-295 CNS = system: SF-295 CNS
PC-3 prostate = system: PC-3 prostate
UO-31 renal = system: UO-31 renal
SK-OV-3 ovarian = system: SK-OV-3 ovarian
ACHN renal = system: ACHN renal
HOP-62 NSCLC = system: HOP-62 NSCLC
HCC-2998 colon = system: HCC-2998 colon
A498 renal = system: A498 renal
IGROV1 ovarian = system: IGROV1 ovarian
OVCAR-5 ovarian = system: OVCAR-5 ovarian
786-0 renal = system: 786-0 renal
UACC-257 melanoma = system: UACC-257 melanoma
SK-MEL-5 melanoma = system: SK-MEL-5 melanoma
MDA-N = system: MDA-N
LOX IMVI melanoma = system: LOX IMVI melanoma
SK-MEL-28 melanoma = system: SK-MEL-28 melanoma
HL-60(TB) leukemia = system: HL-60(TB) leukemia
SW-620 colon = system: SW-620 colon
SK-MEL-2 melanoma = system: SK-MEL-2 melanoma
CAKI-1 renal = system: CAKI-1 renal
MALME-3M melanoma = system: MALME-3M melanoma
T-47D breast = system: T-47D breast

Work on `C[n+]1c(-c2ccccc2)cc2/c(=C\c3ccc([N+](=O)[O-])cc3)c3ccccc3n21` yielded a TGI (HOP-92 NSCLC) greater than 41.6 µM, a TGI (EKVX NSCLC) of 44.2 µM and a TGI (HCT-15 colon) greater than 100 µM. The TGI (SF-539 CNS) was 34.7 µM, the TGI (HS 578T breast) was 4.04 µM and the TGI (MOLT-4 leukemia) was greater than 30.8 µM. For the same compound, the TGI (SNB-19 CNS) was greater than 36.1 µM, the TGI (U251 CNS) was 19.8 µM and the TGI (OVCAR-4 ovarian) was greater than 100 µM. For the same compound, the TGI (RXF 393 renal) was 19.5 µM, the TGI (COLO 205 colon) was greater than 100 µM and the TGI (RPMI-8226 leukemia) was greater than 100 µM. For the same compound, the TGI (SN12C renal) was greater than 33.6 µM, the TGI (KM12 colon) was 17.8 µM and the TGI (HCT-116 colon) was 14 µM. It also gave a TGI (SR leukemia) greater than 41.7 µM, a TGI (OVCAR-3 ovarian) of 15.5 µM and a TGI (SF-268 CNS) of 29.1 µM. For the same compound, the TGI (SNB-75 CNS) was 15.6 µM, the TGI (BT-549 breast) was 1.67 µM and the TGI (NCI-H460 lung) was greater than 100 µM. It also gave a TGI (K-562 leukemia) greater than 100 µM, a TGI (MDA-MB-435) of 14.4 µM and a TGI (CCRF-CEM leukemia) of 8.04 µM. It also gave a TGI (A549 NSCLC) greater than 100 µM, a TGI (UACC-62 melanoma) greater than 73.6 µM and a TGI (HT29 colon) greater than 32.6 µM. It also gave a TGI (MDA-MB-231 breast) of 16.1 µM, a TGI (MCF7 breast) greater than 94.1 µM and a TGI (M14 melanoma) greater than 37.6 µM. For the same compound, the TGI (OVCAR-8 ovarian) was greater than 26 µM, the TGI (NCI/ADR-RES ovarian) was greater than 100 µM and the TGI (DU-145 prostate) was 35.3 µM. It also gave a TGI (NCI-H226 lung) of 25.4 µM, a TGI (NCI-H522 lung) of 2.8 µM and a TGI (TK-10 renal) greater than 100 µM. For the same compound, the TGI (NCI-H23 lung) was 13.6 µM, the TGI (SF-295 CNS) was 21.4 µM and the TGI (PC-3 prostate) was 21.1 µM. It also gave a TGI (UO-31 renal) of 35.5 µM, a TGI (SK-OV-3 ovarian) of 25.4 µM and a TGI (ACHN renal) greater than 38.5 µM. It also gave a TGI (HOP-62 NSCLC) of 19.3 µM, a TGI (HCC-2998 colon) greater than 100 µM and a TGI (A498 renal) greater than 100 µM. For the same compound, the TGI (IGROV1 ovarian) was 9.53 µM, the TGI (OVCAR-5 ovarian) was 54.2 µM and the TGI (786-0 renal) was 18.9 µM. For the same compound, the TGI (UACC-257 melanoma) was greater than 60.8 µM, the TGI (SK-MEL-5 melanoma) was greater than 19.7 µM and the TGI (MDA-N) was 21.8 µM. For the same compound, the TGI (LOX IMVI melanoma) was 17.6 µM, the TGI (SK-MEL-28 melanoma) was 24 µM and the TGI (HL-60(TB) leukemia) was 3.07 µM. For the same compound, the TGI (SW-620 colon) was 29 µM, the TGI (SK-MEL-2 melanoma) was 10.9 µM and the TGI (CAKI-1 renal) was greater than 100 µM.
Compound `CN(C)c1ccc(-c2c(C#N)c(S)n(NS(=O)(=O)c3ccccc3)c(=O)c2C#N)cc1` has a TGI (HOP-92 NSCLC) greater than 100 µM, a TGI (EKVX NSCLC) greater than 100 µM and a TGI (HCT-15 colon) of 57.7 µM. It also gave a TGI (SF-539 CNS) of 53.4 µM, a TGI (MOLT-4 leukemia) greater than 100 µM and a TGI (SNB-19 CNS) greater than 100 µM. The TGI (U251 CNS) was greater than 100 µM, the TGI (OVCAR-4 ovarian) was 74.2 µM and the TGI (RXF 393 renal) was greater than 100 µM. For the same compound, the TGI (COLO 205 colon) was greater than 100 µM, the TGI (RPMI-8226 leukemia) was 91 µM and the TGI (SN12C renal) was 76.2 µM. The TGI (KM12 colon) was 47.7 µM, the TGI (HCT-116 colon) was greater than 100 µM and the TGI (SR leukemia) was greater than 100 µM. For the same compound, the TGI (OVCAR-3 ovarian) was greater than 100 µM, the TGI (SNB-75 CNS) was greater than 100 µM and the TGI (BT-549 breast) was 61.7 µM. For the same compound, the TGI (K-562 leukemia) was greater than 100 µM, the TGI (MDA-MB-435) was 92.6 µM and the TGI (CCRF-CEM leukemia) was greater than 100 µM. The TGI (A549 NSCLC) was greater than 100 µM, the TGI (UACC-62 melanoma) was greater than 100 µM and the TGI (MALME-3M melanoma) was greater than 100 µM. It also gave a TGI (MDA-MB-231 breast) greater than 100 µM, a TGI (MCF7 breast) greater than 100 µM and a TGI (M14 melanoma) greater than 100 µM. The TGI (OVCAR-8 ovarian) was 56.8 µM, the TGI (NCI/ADR-RES ovarian) was 49.5 µM and the TGI (DU-145 prostate) was greater than 100 µM. It also gave a TGI (NCI-H522 lung) of 44.5 µM, a TGI (TK-10 renal) of 41.4 µM and a TGI (NCI-H23 lung) greater than 100 µM. It also gave a TGI (SF-295 CNS) greater than 100 µM, a TGI (PC-3 prostate) greater than 100 µM and a TGI (UO-31 renal) of 86.4 µM. The TGI (SK-OV-3 ovarian) was greater than 100 µM, the TGI (ACHN renal) was greater than 100 µM and the TGI (HCC-2998 colon) was greater than 100 µM. The TGI (A498 renal) was greater than 100 µM, the TGI (IGROV1 ovarian) was 73.5 µM and the TGI (OVCAR-5 ovarian) was greater than 100 µM. For the same compound, the TGI (786-0 renal) was 40.6 µM, the TGI (UACC-257 melanoma) was greater than 100 µM and the TGI (SK-MEL-5 melanoma) was 72.2 µM. For the same compound, the TGI (MDA-N) was 86.5 µM, the TGI (LOX IMVI melanoma) was greater than 100 µM and the TGI (SK-MEL-28 melanoma) was greater than 100 µM. The TGI (HL-60(TB) leukemia) was 85.2 µM, the TGI (SW-620 colon) was greater than 100 µM and the TGI (SK-MEL-2 melanoma) was greater than 100 µM. The TGI (CAKI-1 renal) was 76.1 µM.
`CSCCC(NCc1c(O)ccc2c(-c3ccccc3)cc(=O)oc12)C(=O)O` (stereo unspecified) gave a TGI (HOP-92 NSCLC) greater than 100 µM, a TGI (EKVX NSCLC) greater than 100 µM and a TGI (HCT-15 colon) greater than 100 µM. The TGI (SF-539 CNS) was greater than 100 µM, the TGI (HS 578T breast) was greater than 100 µM and the TGI (T-47D breast) was greater than 100 µM. The TGI (MOLT-4 leukemia) was greater than 100 µM, the TGI (SNB-19 CNS) was greater than 100 µM and the TGI (U251 CNS) was greater than 100 µM. The TGI (OVCAR-4 ovarian) was greater than 100 µM, the TGI (RXF 393 renal) was greater than 100 µM and the TGI (COLO 205 colon) was greater than 100 µM. For the same compound, the TGI (RPMI-8226 leukemia) was greater than 100 µM, the TGI (SN12C renal) was greater than 100 µM and the TGI (KM12 colon) was greater than 100 µM. The TGI (HCT-116 colon) was greater than 100 µM, the TGI (SR leukemia) was greater than 100 µM and the TGI (OVCAR-3 ovarian) was greater than 100 µM. For the same compound, the TGI (SF-268 CNS) was greater than 100 µM, the TGI (SNB-75 CNS) was greater than 100 µM and the TGI (NCI-H460 lung) was greater than 100 µM. For the same compound, the TGI (K-562 leukemia) was greater than 100 µM, the TGI (MDA-MB-435) was greater than 100 µM and the TGI (CCRF-CEM leukemia) was greater than 100 µM. It also gave a TGI (A549 NSCLC) greater than 100 µM, a TGI (UACC-62 melanoma) greater than 100 µM and a TGI (MALME-3M melanoma) greater than 100 µM. The TGI (HT29 colon) was greater than 100 µM, the TGI (MDA-MB-231 breast) was greater than 100 µM and the TGI (MCF7 breast) was greater than 100 µM. For the same compound, the TGI (M14 melanoma) was greater than 100 µM, the TGI (OVCAR-8 ovarian) was greater than 100 µM and the TGI (NCI/ADR-RES ovarian) was greater than 100 µM. The TGI (DU-145 prostate) was greater than 100 µM, the TGI (NCI-H226 lung) was greater than 100 µM and the TGI (NCI-H522 lung) was greater than 100 µM. For the same compound, the TGI (TK-10 renal) was greater than 100 µM, the TGI (NCI-H23 lung) was greater than 100 µM and the TGI (SF-295 CNS) was greater than 100 µM. For the same compound, the TGI (PC-3 prostate) was greater than 100 µM, the TGI (UO-31 renal) was greater than 100 µM and the TGI (SK-OV-3 ovarian) was greater than 100 µM. For the same compound, the TGI (ACHN renal) was greater than 100 µM, the TGI (HOP-62 NSCLC) was greater than 100 µM and the TGI (HCC-2998 colon) was greater than 100 µM. The TGI (IGROV1 ovarian) was greater than 100 µM, the TGI (OVCAR-5 ovarian) was greater than 100 µM and the TGI (786-0 renal) was greater than 100 µM. The TGI (UACC-257 melanoma) was greater than 100 µM, the TGI (SK-MEL-5 melanoma) was greater than 100 µM and the TGI (MDA-N) was greater than 100 µM. For the same compound, the TGI (LOX IMVI melanoma) was greater than 100 µM, the TGI (SK-MEL-28 melanoma) was greater than 100 µM and the TGI (HL-60(TB) leukemia) was greater than 100 µM. For the same compound, the TGI (SW-620 colon) was greater than 100 µM, the TGI (SK-MEL-2 melanoma) was greater than 100 µM and the TGI (CAKI-1 renal) was greater than 100 µM.
